According to patent publication US7691382B2, “Antiviral polypeptides comprising tandem repeats of APOE 141-149 and variants thereof” (priority 2003, dated 2010):
Read-outs that look alike come from different tables or passages of the source. Peptide text beside a SMILES is read from it.

Test system: HSV1
Assay type: cell-based, Human herpes simplex virus type 1
Settings: for efficacy for reducing HSV1 infectivity (in words): Examples 2 and 3
Method: African Green Monkey Kidney (Vero) cells were maintained in Eagle's minimum essential medium with Earle's salt (EMEM) and supplemented with 10% foetal calf serum (heat-inactivated), 4 mM L-glutamine, and 1% (v/v) nonessential amino acids, plus penicillin and streptomycin (100 IU/mg and […], respectively) (maintenance medium referred to as 10% EMEM). The cells were incubated at 37° C. in a humidified atmosphere of air with 5% CO2.
On harvesting, monolayers were washed in phosphate-buffered saline (PBS), and dislodged by incubating with trypsin in PBS for 30 min, before inactivating trypsin by addition of an equal volume of 10% EMEM and centrifuging at 500 g (5 min, 4° C.). Cell pellets were resuspended in 10% EMEM, prior to cell counting and seeding of 24-well plates. For antiviral assays, medium containing only 0.5% FCS was used (referred to as 0.5% EMEM).
Three separate passages of HSV1 virus were prepared by infecting Vero cells, and preparing semi-pure suspensions of virus from tissue culture supernatant and cell lysates, before freezing aliquots of virus at −85° C. Viral infectivity was assessed by carrying out plaque assays on serial dilutions of thawed aliquots (expressed in pfu/ml).
Peptides were obtained in lyophilised form from a commercial supplier (AltaBioscience, University of Birmingham or Advanced Biomedical), and were produced at 5 micromole scale. N-terminals were protected by addition of an acetyl group, and the C-terminals were protected by addition of an amide group.
Small quantities of peptide were weighed in sterile Eppendorf tubes, before addition of sufficient 0.5% EMEM to produce a 1.5 mM stock solution, which was frozen at −20° C. in aliquots.
Vero cells were seeded at 125,000 cells per well in 10% EMEM, and were incubated overnight resulting in confluent monolayers. […] Virus stocks (p3) were thawed, and diluted in 0.5% EMEM such that there were around 100 pfu in 100 μl. Each 24-well plate was inoculated separately. Firstly 100 μl of virus stock was added to the peptide or control medium arranged on a 96-well plate. This was incubated at 37° C. for ten minutes before inoculation. Medium was removed from four wells of a 24-well plate containing confluent Vero, and the 200 μl inoculum added to the appropriate well. Once all wells were treated, the 24-well plate was incubated for a further 60-80 minutes. Finally the peptide-containing inoculum was removed, and 1 ml of 1% EMEM containing 1% carboxymethylcellulose was added to each well. Plates were incubated for a further 22 hours or in some experiments 40 hours, before removal of overlay, and addition of 10% formaldehyde in PBS. After a further one hour incubation, fixative was removed, monolayers washed several times with tap water, and stained with carbol fuchsin solubilised in water. After 30 minutes stain was removed, and plates washed several times with tap water, before being air dried. Plaques were counted using an Olympus IX70 Inverting Microscope, and antiviral effect expressed as a percentage of the control value for each peptide concentration. The IC50 was calculated from plots of inhibitory effect against peptide concentration.

[1] = HSV-1, Vero cells, Table 6 (Example 3), read-out: IC50

| Compound | IC50 | efficacy for reducing HSV1 infectivity (in words) | also measured |
| --- | --- | --- | --- |
| CC[C@H](C)[C@H](NC(=O)[C@@H](NC(=O)[C@H](CCCNC(=N)N)NC(=O)[C@H](CCCCN)NC(=O)[C@H](CCCNC(=N)N)NC(=O)[C@@H](NC(=O)[C@H](CCCCN)NC(=O)[C@H](CCCNC(=N)N)NC(=O)[C@@H](NC(=O)[C@@H](NC(=O)[C@@H](NC(=O)[C@H](CCCNC(=N)N)NC(=O)[C@H](CCCCN)NC(=O)[C@H](CCCNC(=N)N)NC(=O)[C@@H](NC(=O)[C@H](CCCCN)NC(=O)[C@H](CCCNC(=N)N)NC(=O)[C@@H](NC(C)=O)[C@@H](C)CC)[C@@H](C)CC)[C@@H](C)CC)[C@@H](C)CC)[C@@H](C)CC)[C@@H](C)CC)[C@@H](C)CC)C(N)=O [MU 8] (Ac-IRKIRKRIIIRKIRKRII-NH2) | > 30 µM |  |  |
| CC(=O)N[C@@H](CC(=O)O)C(=O)N[C@@H](Cc1c[nH]c2ccccc12)C(=O)N[C@@H](CC(C)C)C(=O)N[C@@H](CCCCN)C(=O)N[C@@H](C)C(=O)N[C@@H](Cc1ccccc1)C(=O)N[C@@H](Cc1ccc(O)cc1)C(=O)N[C@@H](CC(=O)O)C(=O)N[C@@H](CCCCN)C(=O)N[C@H](C(=O)N[C@@H](C)C(=O)N[C@@H](CCC(=O)O)C(=O)N[C@@H](CCCCN)C(=O)N[C@@H](CC(C)C)C(=O)N[C@@H](CCCCN)C(=O)N[C@@H](CCC(=O)O)C(=O)N[C@@H](C)C(=O)N[C@@H](Cc1ccccc1)C(N)=O)C(C)C [GIN 22] (Ac-DWLKAFYDKVAEKLKEAF-NH2) |  |  | IC50 (HSV1, Vero cells, Table 5 (Example 2), read-out: Apparent IC50): 36 µM; IC50 [1]: 36 µM |
| ARKARKRAAARKARKRAA [GIN 39] |  | abolished antiviral activity |  |
| CC(=O)N[C@@H](CC(C)C)C(=O)N[C@@H](CCCNC(=N)N)C(=O)N[C@@H](CCCCN)C(=O)N[C@@H](CC(C)C)C(=O)N[C@@H](CCCNC(=N)N)C(=O)N[C@@H](CCCCN)C(=O)N[C@@H](CC(C)C)C(=O)N[C@@H](CCCNC(=N)N)C(=O)N[C@@H](CCCCN)C(=O)N[C@@H](CC(C)C)C(=O)N[C@@H](CCCNC(=N)N)C(=O)N[C@@H](CCCCN)C(=O)N[C@@H](CC(C)C)C(=O)N[C@@H](CCCNC(=N)N)C(=O)N[C@@H](CCCCN)C(=O)N[C@@H](CC(C)C)C(=O)N[C@@H](CCCNC(=N)N)C(=O)N[C@@H](CCCCN)C(N)=O [GIN 9] (Ac-LRKLRKLRKLRKLRKLRK-NH2) | 15.5 µM | had efficacy |  |
| CC(=O)N[C@@H](CC(C)C)C(=O)N[C@@H](CCCNC(=N)N)C(=O)N[C@@H](CCC(N)=O)C(=O)N[C@@H](CC(C)C)C(=O)N[C@@H](CCCNC(=N)N)C(=O)N[C@@H](CCC(N)=O)C(=O)N[C@@H](CCCNC(=N)N)C(=O)N[C@@H](CC(C)C)C(=O)N[C@@H](CC(C)C)C(=O)N[C@@H](CC(C)C)C(=O)N[C@@H](CCCNC(=N)N)C(=O)N[C@@H](CCC(N)=O)C(=O)N[C@@H](CC(C)C)C(=O)N[C@@H](CCCNC(=N)N)C(=O)N[C@@H](CCC(N)=O)C(=O)N[C@@H](CCCNC(=N)N)C(=O)N[C@@H](CC(C)C)C(=O)N[C@@H](CC(C)C)C(N)=O [GIN 44] (Ac-LRQLRQRLLLRQLRQRLL-NH2) | 40 µM |  |  |
| CC(=O)N[C@@H](CC(C)C)C(=O)N[C@@H](CCCNC(=N)N)C(=O)N[C@@H](CCCCN)C(=O)N[C@@H](CC(C)C)C(=O)N[C@@H](CCCNC(=N)N)C(=O)N[C@@H](CCCCN)C(=O)N[C@@H](CCCNC(=N)N)C(=O)N[C@@H](CC(C)C)C(=O)N[C@@H](CC(C)C)C(=O)N[C@@H](CCCNC(=N)N)C(=O)N[C@@H](CC(=O)O)C(=O)N[C@@H](C)C(=O)N[C@@H](CC(=O)O)C(=O)N[C@@H](CC(=O)O)C(=O)N[C@@H](CC(C)C)C(=O)N[C@@H](CCC(N)=O)C(=O)N[C@@H](CCCCN)C(=O)N[C@@H](CCCNC(=N)N)C(=O)N[C@@H](CC(C)C)C(=O)N[C@@H](C)C(N)=O [GIN 12, LRKLRKRLLR DADDLQKRLA] (Ac-LRKLRKRLLRDADDLQKRLA-NH2) | > 40 µM | no, or poor, efficacy |  |
| CC(=O)N[C@@H](Cc1ccccc1)C(=O)N[C@@H](CCCNC(=N)N)C(=O)N[C@@H](CCCCN)C(=O)N[C@@H](Cc1ccccc1)C(=O)N[C@@H](CCCNC(=N)N)C(=O)N[C@@H](CCCCN)C(=O)N[C@@H](CCCNC(=N)N)C(=O)N[C@@H](Cc1ccccc1)C(=O)N[C@@H](Cc1ccccc1)C(=O)N[C@@H](Cc1ccccc1)C(=O)N[C@@H](CCCNC(=N)N)C(=O)N[C@@H](CCCCN)C(=O)N[C@@H](Cc1ccccc1)C(=O)N[C@@H](CCCNC(=N)N)C(=O)N[C@@H](CCCCN)C(=O)N[C@@H](CCCNC(=N)N)C(=O)N[C@@H](Cc1ccccc1)C(=O)N[C@@H](Cc1ccccc1)C(N)=O [MU 7] (Ac-FRKFRKRFFFRKFRKRFF-NH2) | > 30 µM |  |  |
| CC(=O)N[C@@H](CCCNC(=N)N)C(=O)N[C@@H](CC(C)C)C(=O)N[C@@H](CC(C)C)C(=O)N[C@@H](CCCNC(=N)N)C(=O)N[C@@H](CC(C)C)C(=O)N[C@@H](CC(C)C)C(=O)N[C@@H](CCCNC(=N)N)C(=O)N[C@@H](CC(C)C)C(=O)N[C@@H](CC(C)C)C(=O)N[C@@H](CCCNC(=N)N)C(=O)N[C@@H](CC(C)C)C(=O)N[C@@H](CC(C)C)C(=O)N[C@@H](CCCNC(=N)N)C(=O)N[C@@H](CC(C)C)C(=O)N[C@@H](CC(C)C)C(=O)N[C@@H](CCCNC(=N)N)C(=O)N[C@@H](CC(C)C)C(=O)N[C@@H](CC(C)C)C(N)=O [GIN 10] (Ac-RLLRLLRLLRLLRLLRLL-NH2) |  | no, or poor, efficacy | IC50 (HSV1, Vero cells, Table 4 (Example 2), read-out: Apparent IC50): 39 µM; IC50 [1]: 39 µM |
| CC(=O)N[C@@H](Cc1c[nH]c2ccccc12)C(=O)N[C@@H](CCCNC(=N)N)C(=O)N[C@@H](CCCCN)C(=O)N[C@@H](Cc1c[nH]c2ccccc12)C(=O)N[C@@H](CCCNC(=N)N)C(=O)N[C@@H](CCCCN)C(=O)N[C@@H](Cc1ccccc1)C(=O)N[C@@H](Cc1ccccc1)C(=O)N[C@@H](Cc1ccccc1)C(=O)N[C@@H](CCCNC(=N)N)C(=O)N[C@@H](CCCCN)C(=O)N[C@@H](Cc1c[nH]c2ccccc12)C(=O)N[C@@H](CCCNC(=N)N)C(=O)N[C@@H](CCCCN)C(=O)N[C@@H](CCCNC(=N)N)C(=O)N[C@@H](Cc1c[nH]c2ccccc12)C(=O)N[C@@H](Cc1c[nH]c2ccccc12)C(N)=O [MU 116] (Ac-WRKWRKFFFRKWRKRWW-NH2) | 3.3 µM |  |  |
| CC(=O)N[C@@H](Cc1c[nH]c2ccccc12)C(=O)N[C@@H](CCCNC(=N)N)C(=O)N[C@@H](CCCCN)C(=O)N[C@@H](Cc1c[nH]c2ccccc12)C(=O)N[C@@H](CCCNC(=N)N)C(=O)N[C@@H](CCCCN)C(=O)N[C@@H](CCCNC(=N)N)C(=O)N[C@@H](Cc1c[nH]c2ccccc12)C(=O)N[C@@H](Cc1c[nH]c2ccccc12)C(=O)N[C@@H](Cc1ccccc1)C(=O)N[C@@H](CCCNC(=N)N)C(=O)N[C@@H](CCCCN)C(=O)N[C@@H](Cc1ccccc1)C(=O)N[C@@H](CCCNC(=N)N)C(=O)N[C@@H](CCCCN)C(=O)N[C@@H](CCCNC(=N)N)C(=O)N[C@@H](Cc1ccccc1)C(=O)N[C@@H](Cc1ccccc1)C(N)=O [MU 117] (Ac-WRKWRKRWWFRKFRKRFF-NH2) | 3.3 µM |  |  |
| CSCC[C@H](NC(=O)[C@H](CCSC)NC(=O)[C@H](CCCNC(=N)N)NC(=O)[C@H](CCCCN)NC(=O)[C@H](CCCNC(=N)N)NC(=O)[C@H](CCSC)NC(=O)[C@H](CCCCN)NC(=O)[C@H](CCCNC(=N)N)NC(=O)[C@H](CCSC)NC(=O)[C@H](CCSC)NC(=O)[C@H](CCSC)NC(=O)[C@H](CCCNC(=N)N)NC(=O)[C@H](CCCCN)NC(=O)[C@H](CCCNC(=N)N)NC(=O)[C@H](CCSC)NC(=O)[C@H](CCCCN)NC(=O)[C@H](CCCNC(=N)N)NC(=O)[C@H](CCSC)NC(C)=O)C(N)=O [GIN 40] (Ac-MRKMRKRMMMRKMRKRMM-NH2) | > 30 µM |  |  |
